Data on 16 compounds can be found in patent publication US20220104493A1, “HERBICIDAL COMPOUNDS” (SYNGENTA CROP PROTECTION AG, priority 2019, published 2022).

Molecules are shown by their SMILES. Where two headings read alike, the source gives them in different places.

Experiment in all cases: Post-emergence efficacy, Method A
What all share (assay type): in vivo

For one assay, the system named is Eleusine indica (ELEIN). As to conditions: read-out: Control of weed species after post-emergence application, ELEIN.
The subject of another assay is Setaria faberi (SETFA). The conditions noted are these: read-out: Control of weed species after post-emergence application, SETFA.
The test system of a further assay is Lolium perenne (LOLPE). The conditions noted are these: read-out: Control of weed species after post-emergence application, LOLPE.
Assay [1] deals with Digitaria sanguinalis (DIGSA). The conditions noted are these: read-out: Control of weed species after post-emergence application, DIGSA.
For assay [2], the system named is Chenopodium album (CHEAL). As to conditions: read-out: Control of weed species after post-emergence application, CHEAL.
Assay [3] relates to Echinochloa crus-galli (ECHCG). The conditions noted are these: read-out: Control of weed species after post-emergence application, ECHCG.
The test system of assay [4] is Ipomoea hederacea (IPOHE). The conditions noted are these: read-out: Control of weed species after post-emergence application, IPOHE.
Assay [5] concerns Amaranthus palmeri (AMAPA). As to conditions: read-out: Control of weed species after post-emergence application, AMAPA.
The mark [6] stands for this setting: 500 g/Ha, 100=total damage to plant, 0=no damage, evaluated after 7 and 14 days.

Turning to `O=C(O)C[n+]1ccc(-c2nc(C(F)(F)F)ns2)cc1` [Compound A1, 2-[4-[3-(trifluoromethyl)-1,2,4-thiadiazol-5-yl]pyridin-1-ium-1-yl]acetic acid 2,2,2-trifluoroacetate], the pest or weed control at 500 g/ha was determined as 90% with Eleusine indica (ELEIN) (setting [6]); 90% in the assay on Setaria faberi (SETFA) (setting [6]); 70% in the assay on Lolium perenne (LOLPE) (setting [6]); 70% in assay [1] (setting [6]); 90% in assay [2] (setting [6]); 60% in assay [3] (setting [6]). Further, the figures for the pest or weed control at 500 g/ha in assay [4] (setting [6]) and in assay [5] (setting [6]) were 40% and 100%, respectively.

As to `Cc1nsc(-c2cc[n+](CS(=O)(=O)[O-])cc2)n1` [Compound A2, [4-(3-methyl-1,2,4-thiadiazol-5-yl)pyridin-1-ium-1-yl]methanesulfonate], the pest or weed control at 500 g/ha in the assay on Eleusine indica (ELEIN) (setting [6]) came to 80%; in the assay on Setaria faberi (SETFA) (setting [6]), 70%; in the assay on Lolium perenne (LOLPE) (setting [6]), 60%; in assay [1] (setting [6]), 90%; in assay [2] (setting [6]), 90%; in assay [3] (setting [6]), 60%. Further, the pest or weed control at 500 g/ha was 70% in assay [4] (setting [6]) and 100% in assay [5] (setting [6]).

Take `CP(=O)([O-])C[n+]1ccc(-c2ncns2)cc1` [Compound A10, methyl-[[4-(1,2,4-thiadiazol-5-yl)pyridin-1-ium-1-yl]methyl]phosphinate]: the pest or weed control at 500 g/ha with Eleusine indica (ELEIN) was 90%; in the assay on Setaria faberi (SETFA), 100%; in the assay with Lolium perenne (LOLPE), 40%; in assay [1], 90%; in assay [2], 90%; in assay [3], 90%. Besides, the pest or weed control at 500 g/ha in assay [4] was 50%; in assay [5] it was 90%.

`CC([n+]1ccc(-c2ncns2)cc1)S(=O)(=O)[O-]` (centres unmarked) [Compound A11]: the pest or weed control at 500 g/ha in the assay with Eleusine indica (ELEIN) (setting [6]) stood at 90%; with Setaria faberi (SETFA) (setting [6]), 60%; in the assay on Lolium perenne (LOLPE) (setting [6]), 60%; in assay [1] (setting [6]), 80%; in assay [2] (setting [6]), 90%; in assay [3] (setting [6]), 100%. For the same compound, the pest or weed control at 500 g/ha in assay [4] (setting [6]) was found to be 80%; in assay [5] (setting [6]), 100%.

Take `O=S(=O)([O-])CCC[n+]1ccc(-c2noc(C(F)(F)F)n2)cc1` [Compound A15, 3-[4-[5-(trifluoromethyl)-1,2,4-oxadiazol-3-yl]pyridin-1-ium-1-yl]propane-1-sulfonate]: the pest or weed control at 500 g/ha in the assay on Eleusine indica (ELEIN) (setting [6]) was 10%; in the assay with Setaria faberi (SETFA) (setting [6]) it was 30%; with Lolium perenne (LOLPE) (setting [6]), 0%; in assay [1] (setting [6]) it was 30%; in assay [2] (setting [6]) it was 0%; in assay [3] (setting [6]), 30%. The pest or weed control at 500 g/ha turned out to be 20% in assay [4] (setting [6]) and 0% in assay [5] (setting [6]).

`O=S(=O)([O-])CC[n+]1ccc(-c2nc(C(F)(F)F)cs2)cc1` [Compound A21]: the pest or weed control at 500 g/ha with Eleusine indica (ELEIN) (setting [6]) turned out to be 80%; in the assay on Setaria faberi (SETFA) (setting [6]) it was 70%; in the assay on Lolium perenne (LOLPE) (setting [6]) it was 20%; in assay [1] (setting [6]), 70%; in assay [2] (setting [6]), 0%; in assay [3] (setting [6]), 90%. Also, the pest or weed control at 500 g/ha in assay [4] (setting [6]) came out at 10%; in assay [5] (setting [6]), 70%.

Consider `O=S(=O)([O-])C[n+]1ccc(-c2ncco2)cc1` [Compound A23], for which the pest or weed control at 500 g/ha came out at 0% in the assay on Eleusine indica (ELEIN) (setting [6]); 0% with Setaria faberi (SETFA) (setting [6]); 0% in the assay on Lolium perenne (LOLPE) (setting [6]); 20% in assay [1] (setting [6]); 20% in assay [2] (setting [6]); 0% in assay [3] (setting [6]). Moreover, the pest or weed control at 500 g/ha in assay [4] (setting [6]) was 10%; in assay [5] (setting [6]), 0%.

As to `CS(=O)(=O)[N-]C(=O)C[n+]1ccc(-c2ncns2)cc1` [Compound A29], the pest or weed control at 500 g/ha amounted to 50% in the assay with Eleusine indica (ELEIN) (setting [6]); 50% with Setaria faberi (SETFA) (setting [6]); 40% in the assay with Lolium perenne (LOLPE) (setting [6]); 90% in assay [1] (setting [6]); 30% in assay [2] (setting [6]); 90% in assay [3] (setting [6]). The pest or weed control at 500 g/ha in assay [4] (setting [6]) and in assay [5] (setting [6]) was 90% throughout.

`COP(=O)([O-])C[n+]1ccc(-c2ncns2)cc1` [Compound A30, methoxy-[[4-(1,2,4-thiadiazol-5-yl)pyridin-1-ium-1-yl]methyl]phosphinate]: the pest or weed control at 500 g/ha was determined as 90% in the assay with Eleusine indica (ELEIN); 90% in the assay with Setaria faberi (SETFA); 30% in the assay on Lolium perenne (LOLPE); 90% in assay [1]; 70% in assay [2]; 90% in assay [3]. For the same compound, the pest or weed control at 500 g/ha in assay [4] stood at 50%; in assay [5], 90%.

On to `CCOP(=O)([O-])C[n+]1ccc(-c2ncns2)cc1` [Compound A31], for which the pest or weed control at 500 g/ha came to 80% in the assay on Eleusine indica (ELEIN); 40% with Setaria faberi (SETFA); 20% with Lolium perenne (LOLPE); 80% in assay [1]; 70% in assay [2]; 70% in assay [3]. In addition, the pest or weed control at 500 g/ha in assay [4] was found to be 30%; in assay [5], 70%.

Regarding `O=P([O-])(O)C[n+]1ccc(-c2ncns2)cc1` [Compound A32, hydroxy-[[4-(1,2,4-thiadiazol-5-yl)pyridin-1-ium-1-yl]methyl]phosphinate], the pest or weed control at 500 g/ha is 40% in the assay with Eleusine indica (ELEIN) (setting [6]); 20% in the assay on Setaria faberi (SETFA) (setting [6]); 10% in the assay on Lolium perenne (LOLPE) (setting [6]); 50% in assay [1] (setting [6]); 20% in assay [2] (setting [6]); 70% in assay [3] (setting [6]). Moreover, the pest or weed control at 500 g/ha in assay [4] (setting [6]) turned out to be 0%; in assay [5] (setting [6]), 60%.

For `O=S(=O)([O-])CC[n+]1ccc(-c2nc(C(F)(F)F)ns2)cc1` [Compound A38], the pest or weed control at 500 g/ha was found to be 80% in the assay with Eleusine indica (ELEIN) (setting [6]); 40% in the assay on Setaria faberi (SETFA) (setting [6]); 70% in the assay on Lolium perenne (LOLPE) (setting [6]); 50% in assay [1] (setting [6]); 60% in assay [2] (setting [6]); 60% in assay [3] (setting [6]). Besides, the figures for the pest or weed control at 500 g/ha in assay [4] (setting [6]) and in assay [5] (setting [6]) were 60% and 90%, respectively.

For the compound `O=S(=O)([O-])CC[n+]1ccc(-c2ncco2)cc1` [Compound A39], the pest or weed control at 500 g/ha with Eleusine indica (ELEIN) (setting [6]) was 0%; with Setaria faberi (SETFA) (setting [6]), 0%; in the assay on Lolium perenne (LOLPE) (setting [6]) it was 0%; in assay [1] (setting [6]) it was 0%; in assay [2] (setting [6]), 30%; in assay [3] (setting [6]), 0%. The pest or weed control at 500 g/ha in assay [4] (setting [6]) amounted to 20%; in assay [5] (setting [6]) it was 40%.

On to `O=C(O)C[n+]1ccc(-c2ccno2)cc1` [Compound A40], for which the pest or weed control at 500 g/ha (in the assay with Eleusine indica (ELEIN) (setting [6]); in the assay with Setaria faberi (SETFA) (setting [6]); with Lolium perenne (LOLPE) (setting [6]); in assay [1] (setting [6]); in assay [2] (setting [6]); in assay [3] (setting [6])) was 0% in each case. In addition, the pest or weed control at 500 g/ha came out at 20% in assay [4] (setting [6]) and 10% in assay [5] (setting [6]).

`O=S(=O)([O-])CC[n+]1ccc(-c2ccno2)cc1` [Compound A41]: the pest or weed control at 500 g/ha is 0% in the assay on Eleusine indica (ELEIN) (setting [6]); 10% in the assay on Setaria faberi (SETFA) (setting [6]); 0% in the assay with Lolium perenne (LOLPE) (setting [6]); 10% in assay [1] (setting [6]); 0% in assay [2] (setting [6]); 10% in assay [3] (setting [6]). Besides, the pest or weed control at 500 g/ha was 0% in assay [4] (setting [6]) and 10% in assay [5] (setting [6]).

As for `O=S(=O)([O-])C[n+]1ccc(-c2ccsn2)cc1` [Compound A42], the pest or weed control at 500 g/ha in the assay on Eleusine indica (ELEIN) (setting [6]) was 0%; in the assay with Setaria faberi (SETFA) (setting [6]), 10%; in the assay on Lolium perenne (LOLPE) (setting [6]) it was 0%; in assay [1] (setting [6]), 10%; in assay [2] (setting [6]) it was 20%; in assay [3] (setting [6]) it was 10%. Besides, the pest or weed control at 500 g/ha in assay [4] (setting [6]) stood at 10%; in assay [5] (setting [6]) it was 90%.
